Experiments:
[1] = tested on: hypoxemia model animals; experiment: Effect on partial pressure value of gases in arterial blood, injection system, Method B (acetic acid induced respiratory insufficiency); type: in vivo, rat (Male Wister strain); details: continuous i.v. 0.1 mg/kg/min., 10 min.; for Activity for Decreasing PaCO2: increment PaCO2: PaCO2 after minus before administration; for Activity for Increasing PaO2: increment PaO2: PaO2 after minus before administration
Procedure: Effect on Partial Pressure Value of Gases in Arterial Blood (Injection system) <Method B> Male Wister strain rats (body about 300 g) were anesthetized with halothane inhalant, and then 2.0% acetic acid was […] injected at 0.6 ml/kg to induce a respiratory insufficiency. The animals were intra-peritoneally anesthetized with urethane-α-chloralose, and a cannula was inserted into the femoral artery. After the hypoxemic state (PaO2 : 60-70 mmHg) was observed a compound in accordance with the present invention (test substance) was continuously intravenously injected into these hypoxemia model animals (0.1 mg/kg/min., 10 min.), and then a partial pressure value of gases (PaO2, PaCO2) in arterial blood was immediately determined.

[2] = tested on: hypoxemia state rats; experiment: Effect on partial pressure value of gases in arterial blood, oral administration system, Method A (acetic acid induced hypoxemia, about 60 min); type: in vivo, rat (Male Wistar strain); details: 60 min. after administration
Procedure: Effect on Partial Pressure Value of Gases in Arterial Blood (Oral Administration System) Method A Male Wistar strain rats (body weight about 250 g) fasted overnight were anesthetized with halothane inhalant, and a cannula then inserted into the femoral artery. After the animals recovered from the anesthesia, they were again anesthetized with halothane inhalant, and then 2.0% acetic acid was […] injected at 0.8 ml/kg to induce a hypoxemia state. After the hypoxemic state (PaO2 :60-80 mmHg) was observed over about 60 min., a compound in accordance with the present invention (test substance, 10 or 30 mg/kg) was orally administered to the animals. Then 60 min. after the administration, the partial pressure value of gases (PaO2, PaCO2) in arterial blood was determined.

[3] = tested on: hypoxemia model animals; experiment: Effect on partial pressure value of gases in arterial blood, injection system, Method A (carbon powder induced hypoxemia); type: in vivo, rat (Male Wister strain); details: continuous i.v. 0.1 mg/kg/min., 10 min.; for Activity for Decreasing PaCO2: increment PaCO2: PaCO2 after minus before administration; for Activity for Increasing PaO2: increment PaO2: PaO2 after minus before administration
Procedure: Effect on Partial Pressure Value of Gases in Arterial Blood (Injection system)
Male Wister strain rats (body weight about 300 g) were anesthetized intra-peritoneally with urethane, and a cannula was inserted into the respiratory tract and the femoral artery, respectively. A suspension (30-100 μm, 10 mg/ml) of carbon powder in a corn oil was intratrachealy injected to induce a hypoxemia state (PaO2; 50-60 mmHg). A compound in accordance with the present invention was continuously intravenously injected into these hypoxemia model animals (0.1 mg/kg/min., 10 min.), and then a partial pressure value of gases (PaO2, PaCO2) in arterial blood was immediately determined.

[4] = tested on: hypoxemia animals; experiment: Effect on partial pressure value of gases in arterial blood, oral administration system, Method B (3 days after acetic acid); type: in vivo, rat (Male wistar strain); details: 60 min. after administration
Procedure: Effect on Partial Pressure Value of Gases in Arterial Blood (Oral Administration System)
Male wistar strain rats (body weight about 350 g) were anesthetized with halothane inhalant, and then 2.0% acetic acid were intratrachealy injected at 0.6 ml/kg body to induce a hypoxemia state. In 3 days after injection with 2.0% acetic acid, rats fasted overnight were anesthetized with halothane inhalant, and a cannula inserted into the femoral artery. After these hypoxemia animals (PaO2 : 60-80 mmHg) were recovered from the anesthesia, a compound in accordance with the present invention (test substance, 10 or 30 mg/kg) was orally administered to the animals. At 60 min. after the administration, the partial pressure value of gases (PaO2, PaCO2) in arterial blood was determined.

Compound | Activity for Decreasing PaCO2: increment PaCO2 [1] | Activity for Increasing PaO2: increment PaO2 [1] | also measured
C=CCNc1nc(NC(C)c2ccccc2)c2ccn(C)c2n1.Cl (racemic) [Compound 156, (±)-2-allylamino-7-methyl-4-(1-phenylethylamino)-7H-pyrrolo[2,3-d]pyrimidine hydrochloride] | -9.1 mmHg | – | Activity for Decreasing PaCO2: increment PaCO2 ([2]; 30 mg/kg): -8.1 mmHg; Activity for Increasing PaO2: increment PaO2 ([2]; 30 mg/kg): +7.8 mmHg
C=CCNc1nc(N2CCC(OC(C)=O)CC2)c2ccn(C)c2n1 [Compound 119] | – | – | Activity for Decreasing PaCO2: increment PaCO2 [3]: -2.6 mmHg; Activity for Increasing PaO2: increment PaO2 [3]: +7.1 mmHg
C=CCNc1nc(N2CCOCC2)c2ccn(C)c2n1 [Compound 124] | -4.0 mmHg | +5.7 mmHg | Activity for Decreasing PaCO2: increment PaCO2 ([4]; 30 mg/kg): -2.5 mmHg; Activity for Increasing PaO2: increment PaO2 ([4]; 30 mg/kg): +8.0 mmHg
C=CCNc1nc(N2CCN(C(c3ccc(F)cc3)c3ccc(F)cc3)CC2)c2ccn(C)c2n1 [Compound 133] | – | – | Activity for Decreasing PaCO2: increment PaCO2 [3]: -0.6 mmHg; Activity for Increasing PaO2: increment PaO2 [3]: +6.9 mmHg
C=CCNc1nc(N2CCN(C(c3ccc(F)cc3)c3ccc(F)cc3)CC2)c2ccn(CC=C)c2n1 [Compound 143] | – | – | Activity for Decreasing PaCO2: increment PaCO2 [3]: +1.1 mmHg; Activity for Increasing PaO2: increment PaO2 [3]: +5.0 mmHg
C=CCNc1nc(N(C)C)c2ccn(C)c2n1 [Compound 165] | +1.1 mmHg | +7.9 mmHg | Activity for Decreasing PaCO2: increment PaCO2 ([2]; 30 mg/kg): -3.4 mmHg; Activity for Increasing PaO2: increment PaO2 ([2]; 30 mg/kg): +8.5 mmHg
C=CCNc1nc(N(C)CCc2ccccc2)c2ccn(C)c2n1 [Compound 167] | -6.6 mmHg | – | –
C=CCNc1nc(NCc2ccco2)c2ccn(C)c2n1 [Compound 172] | -2.8 mmHg | +12.3 mmHg | –
C=CCNc1nc(NCCCc2ccco2)c2ccn(C)c2n1 [Compound 173] | -13.1 mmHg | +12.0 mmHg | Activity for Decreasing PaCO2: increment PaCO2 ([2]; 10 mg/kg): -3.7 mmHg; Activity for Increasing PaO2: increment PaO2 ([2]; 10 mg/kg): +4.2 mmHg
C=CCNc1nc(NCc2cccs2)c2ccn(C)c2n1 [Compound 174] | -2.9 mmHg | +5.8 mmHg | –
C=CCNc1nc(NCCc2ccc(OC)cc2)c2ccn(C)c2n1 [Compound 175] | -13.1 mmHg | +15.2 mmHg | –
C=CCNc1nc(NC(C)C)c2ccn(C)c2n1 [Compound 176] | -14.8 mmHg | +22.2 mmHg | Activity for Decreasing PaCO2: increment PaCO2 ([4]; 10 mg/kg): -5.4 mmHg; Activity for Increasing PaO2: increment PaO2 ([4]; 10 mg/kg): +11.6 mmHg
C=CCNc1nc(NC(C)(C)C)c2ccn(C)c2n1 [Compound 178] | -16.4 mmHg | +16.4 mmHg | Activity for Decreasing PaCO2: increment PaCO2 ([4]; 10 mg/kg): -6.6 mmHg; Activity for Increasing PaO2: increment PaO2 ([4]; 10 mg/kg): +17.0 mmHg
C=CCNc1nc(NCC2CCCO2)c2ccn(C)c2n1 (stereo not drawn) [Compound 179] | +2.4 mmHg | +8.5 mmHg | –
C=CCNc1nc(N2CCC(OC)CC2)c2ccn(C)c2n1 [Compound 180] | -0.5 mmHg | +6.5 mmHg | –
C=CCNc1nc(N(CCOCC)CCOCC)c2ccn(C)c2n1 [Compound 181] | +1.2 mmHg | +6.4 mmHg | –
C=CCNc1nc(N2CCCCC2C)c2ccn(C)c2n1 (stereo not drawn) [Compound 182] | – | – | Activity for Decreasing PaCO2: increment PaCO2 ([4]; 30 mg/kg): -2.2 mmHg; Activity for Increasing PaO2: increment PaO2 ([4]; 30 mg/kg): +3.3 mmHg
C=CCNc1nc(N2C(C)CCCC2C)c2ccn(C)c2n1 (stereo not drawn) [Compound 183] | -4.6 mmHg | +10.7 mmHg | –
C=CCNc1nc(NC(COC)COC)c2ccn(C)c2n1 [Compound 184] | -0.7 mmHg | +7.8 mmHg | –
C=CCNc1nc(N[C@H]2CC[C@@H](OC)CC2)c2ccn(C)c2n1 [Compound 185] | -6.0 mmHg | +11.7 mmHg | –
C=CCNc1nc(N[C@H]2CC[C@H](OC)CC2)c2ccn(C)c2n1 [Compound 186] | -15.4 mmHg | +12.3 mmHg | Activity for Decreasing PaCO2: increment PaCO2 ([4]; 10 mg/kg): -5.3 mmHg; Activity for Increasing PaO2: increment PaO2 ([4]; 10 mg/kg): +14.9 mmHg
C=CCNc1nc(N[C@H]2CC[C@H](OCCOCC)CC2)c2ccn(C)c2n1 [Compound 187] | -14.7 mmHg | +13.7 mmHg | Activity for Decreasing PaCO2: increment PaCO2 ([4]; 10 mg/kg): +6.9 mmHg; Activity for Increasing PaO2: increment PaO2 ([4]; 10 mg/kg): +16.0 mmHg
C=CCNc1nc(N(C)[C@H]2CC[C@H](OC)CC2)c2ccn(C)c2n1 [Compound 189] | -6.0 mmHg | +7.3 mmHg | –

Reference: patent publication US5661148A, “Pyrrolo[2,3-d]pyrimidine derivatives, process for producing the same and pharmaceutical preparation comprising the same as active ingredient” (Teijin Limited, priority 1989, dated 1997)
